Experimental data from PMC5524692, “Establishing a yeast-based screening system for discovery of human GLUT5 inhibitors and activators” (Scientific Reports, 2017).
Substitutions are numbered along the chain they refer to. Where two headings read alike, the source gives them in different places.

Experiments:
GLUT5 [1] = molecular target: T1, GLUT5 (Homo sapiens, UniProt P22732, S72Y); assay: inhibition of […]-fructose uptake in hxt0 yeast cells expressing GLUT5; assay type: cell-based
T1 construct: gene SLC2A5; GLUT5tr (truncated for the first seven amino acids at the N-terminus)
T1 sequence (P22732 8-501 S72Y): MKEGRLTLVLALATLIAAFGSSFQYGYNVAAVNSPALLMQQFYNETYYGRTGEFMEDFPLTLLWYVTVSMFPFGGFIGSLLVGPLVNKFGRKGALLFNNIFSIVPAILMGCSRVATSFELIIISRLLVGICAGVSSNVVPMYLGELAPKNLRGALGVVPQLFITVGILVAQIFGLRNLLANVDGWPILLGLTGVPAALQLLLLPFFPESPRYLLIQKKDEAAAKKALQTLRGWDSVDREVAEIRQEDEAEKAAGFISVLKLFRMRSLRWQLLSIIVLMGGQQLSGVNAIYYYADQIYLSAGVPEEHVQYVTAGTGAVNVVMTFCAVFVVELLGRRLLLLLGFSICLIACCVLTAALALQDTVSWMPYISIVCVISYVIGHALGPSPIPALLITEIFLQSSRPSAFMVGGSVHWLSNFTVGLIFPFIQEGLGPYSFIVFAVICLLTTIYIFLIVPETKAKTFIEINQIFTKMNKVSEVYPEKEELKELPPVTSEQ

GLUT5 [2] = molecular target: T2, GLUT5 (Homo sapiens, UniProt P22732, S76I); assay: as above; assay type: cell-based
T2 construct: gene SLC2A5; GLUT5tr (truncated for the first seven amino acids at the N-terminus)
T2 sequence (P22732 8-501 S76I): T1 sequence (P22732 8-501 S72Y) with Y65S, S69I

IC50 (GLUT5 [1]; read-out: IC50 of MSNBA) | IC50 (GLUT5 [2]; read-out: IC50 of MSNBA) | SMILES | IC50 (GLUT5 [1]; read-out: IC50 of ECG) | IC50 (GLUT5 [2]; read-out: IC50 of ECG)
26.6 ± 6.7 µM | 6.3 ± 0.7 µM | CS(=O)(=O)c1ccc(Nc2ccc3c(c2)OCO3)c([N+](=O)[O-])c1 [MSNBA, N-[4-(methylsulfonyl)-2-nitrophenyl]-1,3-benzodioxol-5-amine] |  | 
 |  | O=C(O[C@@H]1Cc2c(O)cc(O)cc2O[C@@H]1c1ccc(O)c(O)c1)c1cc(O)c(O)c(O)c1 [ECG, (−)-epicatechin-gallate] | 180 ± 11 µM | 140 ± 11 µM
